Data published in ChEMBL document CHEMBL5257035, “Nucleoside Derived Antibiotics to Fight Microbial Drug Resistance: New Utilities for an Established Class of Drugs?” (J Med Chem, 2016).
Converted amounts (≈) assume the structure as drawn.

Legend:
[1] = test system: Mycobacterium tuberculosis; test: Antibacterial activity against Mycobacterium tuberculosis ATCC 27294 assessed as reduction in bacterial growth by LORA method; type: functional
[2] = test system: Mycolicibacterium smegmatis; test: Antimycobacterial activity against Mycobacterium smegmatis assessed as microbial growth inhibition; type: functional
[3] = Inhibition of Bacterial MraY; design: species or system Bacteria
Streptococcus pneumoniae [4] = test: Antibacterial activity against Streptococcus pneumoniae B1 assessed as bacterial growth inhibition; type: functional
[5] = Inhibition of Escherichia coli RNA polymerase
[6] = test system: Staphylococcus epidermidis; test: Antibacterial activity against Staphylococcus epidermidis ATCC 12228 assessed as microbial growth inhibition incubated for 24 hrs; type: functional
Bacillus subtilis [7] = test: Antibacterial activity against Bacillus subtilis assessed as bacterial growth inhibition incubated for 24 hrs by micro-broth dilution method; type: functional
Streptococcus pyogenes [8] = test: Antibacterial activity against Streptococcus pyogenes assessed as bacterial growth inhibition incubated for 24 hrs by micro-broth dilution method; type: functional
Haemophilus influenzae = test: Antibacterial activity against Haemophilus influenzae assessed as bacterial growth inhibition incubated for 24 hrs by micro-broth dilution method; type: functional
Staphylococcus aureus [9] = test: Antibacterial activity against Staphylococcus aureus ATCC 25923 assessed as bacterial growth inhibition measured after 18 hrs by CLSI protocol based two-fold serial microdilution method; type: functional
Klebsiella pneumoniae [10] = test: Antibacterial activity against Klebsiella pneumoniae assessed as bacterial growth inhibition incubated for 24 hrs by micro-broth dilution method; type: functional
[11] = test system: Staphylococcus saprophyticus; test: Antibacterial activity against Staphylococcus saprophyticus ATCC 15305 assessed as bacterial growth inhibition after 20 hrs by CLSI based-broth microdilution method; type: functional
Enterococcus faecalis [12] = test: Antibacterial activity against Enterococcus faecalis assessed as bacterial growth inhibition incubated for 24 hrs by micro-broth dilution method; type: functional
Streptococcus pneumoniae [13] = test: Antibacterial activity against Streptococcus pneumoniae B1 assessed as bacterial growth inhibition incubated for 24 hrs by micro-broth dilution method; type: functional
Enterococcus faecium [14] = test: Antibacterial activity against Enterococcus faecium assessed as bacterial growth inhibition incubated for 24 hrs by micro-broth dilution method; type: functional
Moraxella catarrhalis = test: Antibacterial activity against Moraxella catarrhalis assessed as bacterial growth inhibition incubated for 24 hrs by micro-broth dilution method; type: functional
Staphylococcus aureus [15] = test: Antimicrobial activity against methicillin-resistant Staphylococcus aureus 10925 assessed as reduction in microbial growth by broth microdilution method; type: functional
Enterococcus faecium [16] = test: Antimicrobial activity against Enterococcus faecium ATCC 19434 assessed as reduction in microbial growth by broth microdilution method; type: functional
Streptococcus pyogenes [17] = test: Antimicrobial activity against Streptococcus pyogenes ATCC 12344 assessed as reduction in microbial growth by broth microdilution method; type: functional
Bacillus subtilis [18] = test: Antibacterial activity against Bacillus subtilis ATCC 6633 assessed as reduction in bacterial cell growth; type: functional
[19] = Toxicity in rat; details: in vivo
Bacillus subtilis [20] = test: Antibacterial activity against Bacillus subtilis ATCC 6633 assessed as bacterial growth inhibition by agar diffusion method; type: functional
Pseudomonas aeruginosa [21] = test: Antibacterial activity against Pseudomonas aeruginosa ATCC 15442 assessed as bacterial growth inhibition measured after 48 hrs by micro-broth dilution method; type: functional
[22] = test system: Mycolicibacterium smegmatis; test: Antimycobacterial activity against Mycobacterium smegmatis SG 125A assessed as inhibition of bacterial growth; type: functional
[23] = test system: Mycobacterium tuberculosis; test: Antimycobacterial activity against Mycobacterium tuberculosis H37Rv assessed as inhibition of bacterial growth; type: functional
Enterococcus faecalis [24] = test: Antimicrobial activity against Enterococcus faecalis ATCC 29212 assessed as microbial growth inhibition; type: functional, organism-based
Pseudomonas aeruginosa [25] = test: Antimicrobial activity against Pseudomonas aeruginosa ATCC 15692 assessed as microbial inhibition; type: functional, organism-based
Glutamine--tRNA ligase = Glutamine--tRNA ligase (Escherichia coli (strain K12), UniProt P00962); test: Binding affinity to Escherichia coli K12 glutaminyl-tRNA synthetase assessed as inhibition constant
Mycobacterium avium [26] = test: Antimycobacterial activity against Mycobacterium avium ATCC 25291 assessed as bacterial growth inhibition; type: functional
Klebsiella pneumoniae [27] = test: Antibacterial activity against Klebsiella pneumoniae assessed as bacterial growth inhibition; type: functional
Bacillus cereus = test: Antibacterial activity against Bacillus cereus ATCC 11778 assessed as bacterial growth inhibition; type: functional
Escherichia coli = test: Antibacterial activity against Escherichia coli K12 assessed as bacterial growth inhibition measured after 24 hrs by micro broth dilution method; type: functional
[28] = Binding affinity to Escherichia coli methionyl adenylate synthetase
Pseudomonas aeruginosa [29] = test: Antibacterial activity against Pseudomonas aeruginosa assessed as inhibition of bacterial growth incubated for 24 hrs by broth microdilution method; type: functional
Methionine--tRNA ligase = Methionine--tRNA ligase (Escherichia coli K-12, UniProt P00959); test: Inhibition of Escherichia coli K12 methionyl tRNA synthetase
[30] = Inhibition of GMP synthase (unknown origin); design: species or system Homo sapiens
Pseudomonas aeruginosa [31] = test: Antibacterial activity against beta-lactam resistant Pseudomonas aeruginosa assessed as bacterial growth inhibition; type: functional
Pseudomonas aeruginosa [32] = test: Antibacterial activity against Pseudomonas aeruginosa assessed as bacterial growth inhibition; type: functional
[33] = Inhibition of Escherichia coli topoisomerase 4
Mycobacterium avium [34] = test: Antimycobacterial activity against Mycobacterium avium ATCC 25291 assessed as reduction in microbial growth; type: functional
[35] = target: Hypoxanthine-guanine phosphoribosyltransferase (Homo sapiens, UniProt P00492); test: Binding affinity to human HGPRT assessed as inhibition of constant
[36] = test system: Mycobacterium tuberculosis; test: Antimycobacterial activity against Mycobacterium tuberculosis H37Rv assessed as reduction in microbial growth after 7 days by alamar blue assay; type: functional, organism-based; details: 168 h
[37] = test system: Mycobacterium tuberculosis; test: Antimycobacterial activity against Mycobacterium tuberculosis assessed as reduction in microbial growth; type: functional
[38] = test system: Mycolicibacterium smegmatis; test: Antibacterial activity against Mycobacterium smegmatis ATCC 607 assessed as bacterial growth inhibition; type: functional
[39] = target: Phospho-N-acetylmuramoyl-pentapeptide-transferase (Staphylococcus aureus, UniProt P0C1R8); test: Inhibition of Staphylococcus aureus MraY
[40] = test system: Mycobacterium tuberculosis; test: Antimycobacterial activity against Mycobacterium tuberculosis K4 assessed as reduction in bacterial activity; type: functional

Chain of Glutamine--tRNA ligase (P00962 whole entry): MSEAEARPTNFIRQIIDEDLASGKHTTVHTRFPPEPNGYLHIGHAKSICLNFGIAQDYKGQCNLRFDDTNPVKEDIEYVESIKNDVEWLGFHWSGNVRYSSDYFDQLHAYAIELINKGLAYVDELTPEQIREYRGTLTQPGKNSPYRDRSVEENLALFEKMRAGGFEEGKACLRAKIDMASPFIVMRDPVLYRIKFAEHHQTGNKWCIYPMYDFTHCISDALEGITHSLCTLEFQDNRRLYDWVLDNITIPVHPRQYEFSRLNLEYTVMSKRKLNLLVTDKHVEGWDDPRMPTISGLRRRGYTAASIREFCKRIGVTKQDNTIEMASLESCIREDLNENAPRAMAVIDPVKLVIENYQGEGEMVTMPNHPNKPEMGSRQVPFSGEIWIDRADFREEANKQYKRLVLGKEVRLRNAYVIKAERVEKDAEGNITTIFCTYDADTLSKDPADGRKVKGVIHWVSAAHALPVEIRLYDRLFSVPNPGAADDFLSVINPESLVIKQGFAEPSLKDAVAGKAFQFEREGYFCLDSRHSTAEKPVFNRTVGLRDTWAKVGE
Chain of Hypoxanthine-guanine phosphoribosyltransferase (P00492 whole entry): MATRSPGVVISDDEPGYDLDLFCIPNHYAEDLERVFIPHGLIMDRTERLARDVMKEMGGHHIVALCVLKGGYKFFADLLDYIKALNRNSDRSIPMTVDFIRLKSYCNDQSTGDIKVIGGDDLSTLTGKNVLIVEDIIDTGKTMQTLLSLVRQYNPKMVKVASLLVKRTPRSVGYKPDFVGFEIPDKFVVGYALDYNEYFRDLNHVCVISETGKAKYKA
Chain of Methionine--tRNA ligase (P00959 whole entry): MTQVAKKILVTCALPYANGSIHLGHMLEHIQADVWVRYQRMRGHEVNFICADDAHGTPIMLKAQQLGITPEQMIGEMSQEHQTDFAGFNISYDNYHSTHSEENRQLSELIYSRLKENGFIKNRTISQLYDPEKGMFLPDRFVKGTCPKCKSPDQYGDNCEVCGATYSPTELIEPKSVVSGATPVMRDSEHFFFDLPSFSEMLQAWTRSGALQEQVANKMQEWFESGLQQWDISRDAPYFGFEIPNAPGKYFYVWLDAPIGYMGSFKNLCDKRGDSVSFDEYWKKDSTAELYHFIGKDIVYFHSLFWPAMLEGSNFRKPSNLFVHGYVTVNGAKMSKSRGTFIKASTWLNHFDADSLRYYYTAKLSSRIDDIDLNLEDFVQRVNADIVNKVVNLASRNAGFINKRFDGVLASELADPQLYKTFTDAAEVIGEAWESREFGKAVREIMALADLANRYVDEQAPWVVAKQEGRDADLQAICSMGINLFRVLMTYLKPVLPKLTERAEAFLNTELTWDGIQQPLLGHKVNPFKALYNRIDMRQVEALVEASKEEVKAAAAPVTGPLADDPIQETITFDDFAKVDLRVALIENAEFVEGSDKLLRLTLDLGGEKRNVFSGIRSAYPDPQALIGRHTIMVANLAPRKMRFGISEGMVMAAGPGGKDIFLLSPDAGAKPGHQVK
Chain of Phospho-N-acetylmuramoyl-pentapeptide-transferase (P0C1R8 whole entry): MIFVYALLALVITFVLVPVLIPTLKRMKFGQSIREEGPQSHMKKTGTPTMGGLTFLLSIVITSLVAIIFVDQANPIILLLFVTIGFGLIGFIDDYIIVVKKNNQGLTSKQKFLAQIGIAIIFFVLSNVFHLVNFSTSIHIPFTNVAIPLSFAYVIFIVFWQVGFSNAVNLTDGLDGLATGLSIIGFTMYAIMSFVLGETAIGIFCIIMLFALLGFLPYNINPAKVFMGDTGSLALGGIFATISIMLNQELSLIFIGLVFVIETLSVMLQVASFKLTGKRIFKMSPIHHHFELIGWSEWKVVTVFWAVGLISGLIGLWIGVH

CO[C@H]1[C@@H](O)[C@H](n2ccc(=O)[nH]c2=O)O[C@@H]1[C@@H](O[C@@H]1OC(C(=O)N[C@H]2CCCCNC2=O)=C[C@@H](O)[C@H]1O)C(N)=O
MIC [1]: 100 µg/mL (≈ 176 µM) | MIC [2]: 3 µg/mL (≈ 5.27 µM) | Ki [3]: 0.01 µg/mL (≈ 0.0176 µM) | MIC (Streptococcus pneumoniae [4]): 12.5 µg/mL (≈ 21.9 µM) | IC50 [5]: 0.1 µM

CCC(C)C(N)C(=O)NS(=O)(=O)OC[C@H]1O[C@@H](CCn2nnc(-c3ccc(Oc4ccccc4)cc3)n2)[C@H](O)[C@@H]1O (some centres not stated)
MIC [6]: 2 µg/mL (≈ 3.39 µM) | MIC (Bacillus subtilis [7]): 2 µg/mL (≈ 3.39 µM) | MIC (Streptococcus pyogenes [8]): 2 µg/mL (≈ 3.39 µM) | MIC (Haemophilus influenzae): 2 µg/mL (≈ 3.39 µM) | MIC (Staphylococcus aureus [9]): 2 µg/mL (≈ 3.39 µM) | MIC (Klebsiella pneumoniae [10]): 2 µg/mL (≈ 3.39 µM) | MIC [11]: 2 µg/mL (≈ 3.39 µM) | MIC (Enterococcus faecalis [12]): 2 µg/mL (≈ 3.39 µM) | MIC (Streptococcus pneumoniae [13]): 2 µg/mL (≈ 3.39 µM) | MIC (Enterococcus faecium [14]): 2 µg/mL (≈ 3.39 µM) | MIC (Moraxella catarrhalis): 2 µg/mL (≈ 3.39 µM)

CCCCCCCCCCCCC[C@@H](CC(=O)O[C@H]1CN(C)[C@@H]([C@H](O[C@H]2O[C@@H](CN)[C@H](O)[C@@H]2O)[C@H]2O[C@@H](n3ccc(=O)[nH]c3=O)[C@H](OS(=O)(=O)O)[C@@H]2O)C(=O)N(C)[C@@H]1C(=O)O)OC(=O)C[C@H](C)CC(=O)O[C@@H]1O[C@@H](C)[C@H](OC)[C@@H](OC)[C@H]1OC
MIC (Staphylococcus aureus [15]): 4 µg/mL | MIC (Enterococcus faecium [16]): 4 µg/mL | MIC (Streptococcus pyogenes [17]): 4 µg/mL

CCC(C)CCCCCCCCCCC(=O)N[C@H]1[C@H](O[C@@H]2O[C@@H](CO)[C@H](O)[C@H](O)[C@H]2NC(C)=O)O[C@H](C[C@@H](C)[C@H]2O[C@@H](n3ccc(=O)[nH]c3=O)[C@H](O)[C@@H]2O)[C@H](O)[C@@H]1O (some centres not stated)
MIC (Bacillus subtilis [18]): 0.1 µg/mL (≈ 0.12 µM) | LD50 [19]: 0.137 mg/kg | MIC (Bacillus subtilis [20]): 0.1 µg/mL (≈ 0.12 µM)

C[C@H](N)C(=O)N(C)C[C@H](NC(=O)[C@H](C)NC(=O)N[C@@H](Cc1c[nH]c2ccccc12)C(=O)O)C(=O)NCC1C[C@@H](O)[C@H](n2ccc(=O)[nH]c2=O)O1 (some centres not stated)
MIC (Pseudomonas aeruginosa [21]): 64 µg/mL (≈ 91.5 µM)

CCC(C)CCCCCCCC/C=C/C(=O)N[C@H]1[C@H](O[C@@H]2O[C@@H](CO)[C@H](O)[C@H](O)[C@H]2NC(C)=O)O[C@H](C[C@@H](C)[C@H]2O[C@@H](N3CCC(=O)NC3=O)[C@H](O)[C@@H]2O)[C@H](O)[C@@H]1O (some centres not stated)
MIC [22]: 3.1 µg/mL (≈ 3.73 µM) | MIC [23]: 10 µg/mL (≈ 12 µM) | MIC (Bacillus subtilis [20]): 0.31 µg/mL (≈ 0.373 µM)

CCCC(C)CC(C)CC(C)/C=C(C)/C=C/C(O)C(C)C(=O)OC1C(O)CN2CC1NC[C@H]1O[C@@H](OC([C@H]3O[C@@H](n4ccc(=O)[nH]c4=O)[C@H](O)[C@@H]3OS(=O)(=O)O)C2C(=O)O)[C@H](O)[C@@H]1O (some centres not stated)
IC50 (Enterococcus faecalis [24]): 0.012 µg/mL (≈ 0.0129 µM) | IC50 (Pseudomonas aeruginosa [25]): 0.065 µg/mL (≈ 0.0697 µM)

NC(=O)CCC(N)COP(=O)(O)OC[C@H]1O[C@@H](n2cnc3c(N)ncnc32)[C@H](O)[C@@H]1O (some centres not stated)
Ki (Glutamine--tRNA ligase): 0.28 µM

CN1C(=O)[C@H]([C@H](O[C@H]2O[C@@H](CN)[C@H](O)[C@@H]2O)[C@H]2O[C@@H](n3ccc(=O)[nH]c3=O)[C@H](O)[C@@H]2O)N(C)CC=C1C(=O)O
MIC (Mycobacterium avium [26]): 0.05 µg/mL (≈ 0.0897 µM)

Cc1cn([C@H]2C[C@H](N=[N+]=[N-])[C@@H](COC(=O)C(=O)N[C@@H](CC(C)C)C(=O)O)O2)c(=O)[nH]c1=O
MIC (Klebsiella pneumoniae [27]): 0.125 µg/mL (≈ 0.276 µM)

CSCC[C@H](N)C(=O)OC[C@H]1O[C@@H](n2cnc3c(N)ncnc32)[C@H](O)[C@@H]1O
MIC (Bacillus cereus): 32 µg/mL (≈ 80.3 µM) | MIC (Escherichia coli): 0.5 µg/mL (≈ 1.25 µM) | Ki [28]: 10.9 µM

C[C@H](NC(=O)N[C@@H](Cc1cccc(Cl)c1)C(=O)O)C(=O)N[C@H](C(=O)N/C=C1/C[C@@H](O)[C@H](n2ccc(=O)[nH]c2=O)O1)[C@H](C)NC(=O)[C@@H](N)Cc1ccc(O)cc1
MIC (Pseudomonas aeruginosa [29]): 64 µg/mL (≈ 81.5 µM)

CCC(C)C(N)C(=O)NS(=O)(=O)OC[C@H]1O[C@@H](n2cnc3c(N)nc(I)nc32)[C@H](O)[C@@H]1O (some centres not stated)
IC50 (Methionine--tRNA ligase): 0.014 µM

NC(=O)c1ncn([C@@H]2O[C@H](CO)[C@@H](O)[C@H]2O)c1O [MIZORIBINE]
Ki [30]: 100 µM

CSCC[C@H](NC(=O)NC(Cc1cccc(O)c1)C(=O)O)C(=O)NC(CN(C)C(=O)[C@@H](N)C(Cc1cccc(O)c1)NCC(=O)O)C(=O)N/C=C1/C[C@@H](O)[C@H](n2ccc(=O)[nH]c2=O)O1 (some centres not stated)
MIC (Pseudomonas aeruginosa [31]): 0.1 µg/mL (≈ 0.109 µM) | MIC (Pseudomonas aeruginosa [32]): 1.5 µg/mL (≈ 1.64 µM)

CCC(C)C(N)C(=O)NS(=O)(=O)OC[C@H]1O[C@@H](CCn2nnc(-c3ccccc3)n2)[C@H](O)[C@@H]1O (some centres not stated)
Ki [33]: 1.3 µg/mL (≈ 2.61 µM)

CCCCCCCCCC[C@H](CC(=O)O[C@H]1CN(C)[C@@H]([C@@H](O[C@@H]2O[C@H](CN)[C@@H](O)[C@H]2O)[C@H]2O[C@@H](n3ccc(=O)[nH]c3=O)[C@H](O)[C@@H]2O)C(=O)N(C)[C@@H]1C(=O)O)OC(=O)C[C@H](C)CC(=O)O
MIC (Mycobacterium avium [34]): 1.2 µg/mL

CCOC(=O)[C@H](Cc1ccccc1)NP(=O)(N[C@@H](Cc1ccccc1)C(=O)OCC)OCOCCN
Ki [35]: 0.69 µM | IC50 [36]: 5 µM | MIC [37]: 4.5 µM

CO[C@H]1[C@@H](O)[C@H](n2ccc(=O)[nH]c2=O)O[C@@H]1[C@@H](O[C@@H]1OC(C(=O)N[C@H]2CCC[C@@H](C)NC2=O)=C[C@@H](O)[C@H]1O)C(N)=O
MIC [38]: 6.25 µg/mL (≈ 10.7 µM) | IC50 [39]: 0.017 µM

CN1C[C@H](O)[C@@H](C(=O)O)N(C)C(=O)[C@@H]1[C@H](O[C@@H]1O[C@H](CN)[C@@H](O)[C@H]1O)[C@H]1O[C@@H](n2ccc(=O)[nH]c2=O)[C@H](O)[C@@H]1O [CAPRAZOL]
MIC [40]: 3.13 µg/mL (≈ 5.44 µM)
